Reference: patent US20240398781A1, “SPIROCYCLIC CYCLIC MODULATORS OF CHOLESTEROL BIOSYNTHESIS AND THEIR USE FOR PROMOTING REMYELINATION” (GENENTECH, INC., priority 2021, published 2024)
Where two headings read alike, the source gives them in different places.

Experiments:
EpiSC-derived OPCs = assay: In vitro phenotypic screening of OPCs (MBP staining, high-content imaging); format: cell-based, mouse; conditions: percentage of MBP+ oligodendrocytes, 3 days, 0.5 nM to 1000 nM, read-out: OPC EC50
Summary of the method: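 Readout: high-content imaging of MBP immunostaining around DAPI nuclei, giving percent oligodendrocytes, with EC50 from a Levenberg-Marquardt Hill fit. Epiblast stem cell-derived OPCs were plated on laminin at 150,000/cm^2 in growth-factor-free N2B27. They were exposed 3 days to an 8-point series, 0.5-1000 nM final, in two or more independent platings.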

human EBP = human EBP (Homo sapiens (Human), UniProt Q15125); assay: Competition binding assay (SPA, [3H]-Ifenprodil) to determine compound affinity to EBP; conditions: [3H]-Ifenprodil 10 nM, HEK293 membrane overexpressing human EBP, Ki=IC50/(1+[L]/Kd); read-out: hEBP SPA Ki
Protocol: Membrane preparation: To examine compound binding affinity to EBP, human EBP was overexpressed in human embryonic kidney 293 cells. Cell pellet was lysed in 10 times weight binding buffer (50 mM Tris, 5 mM MgCl2, 0.1 mM EDTA, lx protease inhibitor cocktail, pH 7.5) on ice by using a dounce homogenizer. The solution was centrifuged at 25,000 g for 50 min at 4° C. The membrane pellet was re-suspended in binding buffer and run through a 25 5/8 gauge needle. After checking the concentration by Bradford assay, the whole cell membrane solution was adjusted to 20 mg/mL and stored at −80° C.
This binding solution was centrifuged at 400 g for 5 minutes to collect the bead/membrane mixture. After re-suspending the pellet in binding buffer at the same calculated volume with 0.01% BSA (Sigma A1933), the bead/membrane mixture was added in 384-well low-binding surface plate (PerkinElmer Cat #6057480) at 25 μl/well. Radioligand at different concentrations with and without the non-radio-labeled same ligand 5 uM (for nonspecific and total signal, respectively) was added to bring final volume to 50 µl/well with DMSO concentration at 0.1%. At equilibrium (3 hours after ligand addition), radiometric signal CPM was counted by using a Microbeta2 microplate counter (Perkinelmer).
Competition binding assay to determine compound affinity: The same conditions of the radioligand Kd study were used for compound single dose percentage inhibition and equilibrium dissociation constant Ki examinations, except 50 nL compound DMSO stock was pre-added in 384-well low-binding surface plate (PerkinElmer Cat #6057480) by Echo 550 (Labcyte) to reach the final concentration for single dose test at 1 uM, and dose response test from 0.06 nM to 5 uM (8 dose, 5 times dilution). A pre-incubated bead/membrane mixture was added in compound plate at 0.3 mg beads and […] membrane per well. […] At equilibrium (3 hours after ligand addition), radiometric signal was counted as described above. The percentage inhibition of compound at each testing concentration was calculated by normalizing each condition's CPM readout to full block (5 uM non-radiolabeled ligand) and non-block (DMSO) control conditions. Compound binding inhibition IC50 was determined by nonlinear regression fitting of percentage inhibition plot against compound concentration. Compound Ki was calculated from the equation Ki=IC50/(1+[L]/Kd), which [L] was radioligand concentration used in assay. All tests had N bigger or equal to 2.

human EBP, sequence (Q15125 whole entry): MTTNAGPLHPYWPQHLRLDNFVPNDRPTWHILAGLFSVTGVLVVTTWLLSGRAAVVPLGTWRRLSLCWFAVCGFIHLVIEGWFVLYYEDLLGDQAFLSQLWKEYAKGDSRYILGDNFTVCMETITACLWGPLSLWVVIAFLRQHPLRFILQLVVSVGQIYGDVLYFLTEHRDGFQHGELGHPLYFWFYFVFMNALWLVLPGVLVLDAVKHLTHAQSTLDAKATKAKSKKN

Row | SMILES | EC50 (EpiSC-derived OPCs; Mus musculus, 72 h) | Ki (human EBP) | EC50 (EpiSC-derived OPCs)
1 | O=S1(=O)CC2(CCN([C@H]3CC[C@H](c4ccc(C(F)(F)F)cc4)CC3)C2)C1 [Compound 3A, 6-((1r,4r)-4-(4-(trifluoromethyl)phenyl)cyclohexyl)-2-thia-6-azaspiro[3.4]octane 2,2-dioxide] | 5.1 nM | 20 nM | 
2 | O=S1(=O)CC2(CCN([C@@H]3CCCN(c4ccc(C(F)(F)F)cc4)C3)C2)C1 (single isomer, unassigned) [22A*] | 9.5 nM | 34 nM | 
3 | Cn1nc(C(F)(F)F)cc1[C@H]1CC[C@@H](N2CCC3(CC2)CS(=O)(=O)C3)CC1 [Compound 25A, 7-((1s,4s)-4-(1-Methyl-3-(trifluoromethyl)-1H-pyrazol-5-yl)cyclohexyl)-2-thia-7-azaspiro[3.5]nonane 2,2-dioxide] | 100 nM | 110 nM | 
4 | O=S1(=O)CC2(CCN([C@H]3CC[C@@H](c4ccc(C(F)(F)F)nc4)C3)C2)C1 (single isomer, unassigned) [Compound 11A, (Cis)-6-(3-(6-(Trifluoromethyl)pyridin-3-yl)cyclopentyl)-2-thia-6-azaspiro[3.4]octane 2,2-dioxide] | 160 nM | 54 nM | 
5 | O=S1(=O)CC2(CCN([C@H]3CO[C@H](c4ccc(C(F)(F)F)cc4)C3)C2)C1 (stereo in doubt) [19D*, 6-((3R,5S)-5-(4-(trifluoromethyl)phenyl)tetrahydrofuran-3-yl)-2-thia-6-azaspiro[3.4]octane 2,2-dioxide] | 160 nM | 32 nM | 
6 | CC(C)n1nc(C(F)(F)F)cc1[C@H]1CC[C@@H](N2CCC3(C2)CS(=O)(=O)C3)C1 (single isomer, unassigned) [10B*] | 20 nM | 19 nM | 
7 | Cn1nc(C(F)(F)F)cc1[C@H]1CC[C@H](N2CC[C@@]3(CCS(=O)(=O)C3)C2)CC1 (single isomer, unassigned) [27A*] |  | 39 nM | 53 nM
8 | O=S1(=O)CC2(CCN(C3CCN(c4ccc(C(F)(F)F)cn4)CC3)C2)C1 [Compound 6, 6-(1-(5-(trifluoromethyl)pyridin-2-yl)piperidin-4-yl)-2-thia-6-azaspiro[3.4]octane 2,2-dioxide] | 39 nM | 37 nM | 
9 | O=S1(=O)CC2(CCN([C@H]3CC[C@H](c4cc(C(F)(F)F)nn4C4CC4)CC3)CC2)C1 [Compound 40B, 7-((1s,4s)-4-(1-cyclopropyl-3-(trifluoromethyl)-1H-pyrazol-5-yl)cyclohexyl)-2-thia-7-azaspiro[3.5]nonane 2,2-dioxide] | 71 nM | 47 nM | 
10 | O=S1(=O)CC2(CCN([C@@H]3CC[C@@H](c4ccc(C(F)(F)F)nc4)C3)C2)C1 (single isomer, unassigned) [Compound 11B, (Trans)-6-(3-(6-(Trifluoromethyl)pyridin-3-yl)cyclopentyl)-2-thia-6-azaspiro[3.4]octane 2,2-dioxide] | 35 nM | 42 nM | 
11 | CC(C)n1cc(C(F)(F)F)nc1[C@@H]1CC[C@H](N2CCC3(C2)CS(=O)(=O)C3)C1 (single isomer, unassigned) [20D*] | 260 nM | 98 nM | 
12 | CC(C)n1cc(C(F)(F)F)nc1[C@H]1CC[C@@H](N2CCC3(C2)CS(=O)(=O)C3)C1 (single isomer, unassigned) [20C*] | 660 nM | 270 nM | 
13 | CC(C)n1nc(-c2ccc(C(F)(F)F)nc2)nc1[C@H]1CC[C@@H](N2CCC3(C2)CS(=O)(=O)C3)C1 (single isomer, unassigned) [17D*] | 14 nM | 20 nM | 
14 | O=S1(=O)CC2(CCN(C3CCN(c4ccc(C(F)(F)F)cc4)CC3)C2)C1 [Compound 4, 6-(1-(4-(trifluoromethyl)phenyl)piperidin-4-yl)-2-thia-6-azaspiro[3.4]octane 2,2-dioxide] | 23 nM | 26 nM | 
15 | Cc1cc(C(F)(F)F)cnc1[C@H]1CC[C@H](N2CCC3(C2)CS(=O)(=O)C3)CC1 [Compound 47B, 6-((1r,4r)-4-(3-methyl-5-(trifluoromethyl)pyridin-2-yl)cyclohexyl)-2-thia-6-azaspiro[3.4]octane 2,2-dioxide] | 20 nM | 16 nM | 
16 | Cn1nc(C(F)(F)F)cc1[C@H]1CC[C@H](N2CC[C@]3(CCS(=O)(=O)C3)C2)CC1 (single isomer, unassigned) [38C*] |  | 29 nM | 50 nM

Row | SMILES | EC50 (EpiSC-derived OPCs; Mus musculus, 72 h) | Ki (human EBP) | EC50 (EpiSC-derived OPCs)
17 | CC(C)n1nc(C2CC2)nc1[C@@H]1CC[C@@H](N2CCC3(C2)CS(=O)(=O)C3)C1 (single isomer, unassigned) [18C*] | 240 nM | 82 nM | 
18 | Cn1nc(C(F)(F)F)cc1[C@H]1CC[C@@H](N2CC[C@@]3(CCS(=O)(=O)C3)C2)CC1 (single isomer, unassigned) [38B*] | 400 nM | 24 nM | 
19 | CC(C)n1nc(-c2cncc(C(F)(F)F)c2)cc1[C@@H]1CC[C@H](N2CCC3(C2)CS(=O)(=O)C3)C1 (single isomer, unassigned) [13B*] | 1.3 nM | 25 nM | 
20 | CC(C)n1nc(-c2cncc(OC(F)F)c2)cc1[C@H]1CC[C@H](N2CCC3(C2)CS(=O)(=O)C3)CC1 [Compound 33A, 6-((1r,4r)-4-(3-(5-(Difluoromethoxy)pyridin-3-yl)-1-isopropyl-1H-pyrazol-5-yl)cyclohexyl)-2-thia-6-azaspiro[3.4]octane 2,2-dioxide] | 29 nM | 37 nM | 
21 | Cc1cc(F)cnc1N1CCC(N2CCC3(C2)CS(=O)(=O)C3)CC1 [Compound 31, 6-(1-(5-fluoro-3-methylpyridin-2-yl)piperidin-4-yl)-2-thia-6-azaspiro[3.4]octane 2,2-dioxide] | 190 nM | 59 nM | 
22 | O=S1(=O)CC2(CCN([C@H]3CO[C@@H](c4ccc(C(F)(F)F)cc4)C3)C2)C1 (stereo in doubt) [19A*, 6-((3R,5R)-5-(4-(Trifluoromethyl)phenyl)tetrahydrofuran-3-yl)-2-thia-6-azaspiro[3.4]octane 2,2-dioxide] | 140 nM | 27 nM | 
23 | Cc1cc(C(F)(F)F)cnc1N1CCC(N2CCC3(C2)CS(=O)(=O)C3)CC1 [Compound 7, 6-(1-(3-methyl-5-(trifluoromethyl)pyridin-2-yl)piperidin-4-yl)-2-thia-6-azaspiro[3.4]octane 2,2-dioxide] | 21 nM | 10 nM | 
24 | O=S1(=O)CC2(CCN(C3CCN(c4ccc(C(F)(F)F)nc4)CC3)C2)C1 [Compound 5, 6-(1-(6-(trifluoromethyl)pyridin-3-yl)piperidin-4-yl)-2-thia-6-azaspiro[3.4]octane 2,2-dioxide] | 190 nM | 67 nM | 
25 | O=S1(=O)CC2(CCN([C@@H]3CC[C@@H](c4ccc(C(F)(F)F)cc4)C3)C2)C1 [Compound 1B, 6-((1R,3R)-3-(4-(trifluoromethyl)phenyl)cyclopentyl)-2-thia-6-azaspiro[3.4]octane 2,2-dioxide] | 1.8 nM | 100 nM | 
26 | CCn1nc([C@H]2CC[C@H](N3CCC4(C3)CS(=O)(=O)C4)CC2)cc1C(F)(F)F [Compound 16, 6-((1r,4r)-4-(1-Ethyl-5-(trifluoromethyl)-1H-pyrazol-3-yl)cyclohexyl)-2-thia-6-azaspiro[3.4]octane 2,2-dioxide] | 41 nM | 36 nM | 
27 | CC(C)n1nc(-c2cncc(C(F)(F)F)c2)cc1[C@@H]1CC[C@@H](N2CCC3(C2)CS(=O)(=O)C3)C1 (single isomer, unassigned) [13C*] | 21 nM | 21 nM | 
28 | CC(C)n1nc(C(F)(F)F)cc1[C@H]1CC[C@H](N2CCC3(C2)CS(=O)(=O)C3)C1 (single isomer, unassigned) [10A*] | 18 nM | 34 nM | 
29 | CC(C)n1cc(C(F)(F)F)nc1[C@@H]1CC[C@@H](N2CCC3(C2)CS(=O)(=O)C3)C1 (single isomer, unassigned) [20B*] | 340 nM | 55 nM | 
30 | CC(C)n1nc(-c2ccc(C(F)(F)F)nc2)nc1[C@H]1CC[C@H](N2CCC3(C2)CS(=O)(=O)C3)C1 (single isomer, unassigned) [17B*] | 22 nM | 31 nM | 
31 | CC(C)n1cc(C(F)(F)F)nc1[C@H]1CC[C@H](N2CCC3(C2)CS(=O)(=O)C3)C1 (single isomer, unassigned) [20A*] | > 1000 nM | 280 nM | 
